Experimental data as given in patent US20180256509A1, “Nanoparticle Compositions and Methods Thereof to Restore Vascular Integrity” (priority 2014, published 2018).

Tested on: C57BL mice infused with LPS
Assay: Endotoxemia study: vascular permeability (intravascular-extravascular intensity)
Type: in vivo
Conditions: 2 hours after LPS infusion; 10 mg/kg; FIG. 10
Procedure: In this study, the effect of treatment with curcumin-selenium nanoparticles was evaluated in animal models with endotoxemia. In particular, C57BL mice were first infused with 10 mg/kg of LPS (Lipopolysaccharides from E. coli serotype 0128:B12, Sigma Aldrich St. Louis, Mo.). The mice were then separated into 5 treatment groups: 1) no treatment; 2) control NP 10 mg/kg; 3) curcumin 10 mg/kg; 4) curcumin-NP 10 mg/kg (dose calculated based on curcumin concentration); and 5) curcumin-selenium-NP 10 mg/kg (dose calculated based on curcumin concentration). Treatments were administered 30 minutes after LPS infusion. No additional fluid therapies were applied, and food and water was available during observation time points. […] Vascular integrity for all treatment groups was also evaluated at baseline and 2 hours after LPS infusion. Additionally, other end points related to systemic and microvascular function (i.e., heart rate, arteriolar diameter, arteriolar blood flow, and functional capillary density) were evaluated for 4 of the treatment groups (no treatment, control NP 10, curcumin-NP 10 mg/kg, and curcumin-selenium-NP 10 mg/kg treatment groups) at baseline, and 2, 4, 6, 12, and 24 hours after LPS infusion.

Compound: COc1cc(/C=C/C(=O)CC(=O)/C=C/c2ccc(O)c(OC)c2)ccc1O [curcumin]
- vascular permeability compared with the untreated and control NP treatment groups: markedly less vascular permeability
